Data published in PMC11397024, “Strategic Fluorination to Achieve a Potent, Selective, Metabolically Stable, and Orally Bioavailable Inhibitor of CSNK2” (Molecules, 2024).

Columns and labels:
Experiment in all cases: NanoBRET K192
Type in all cases: cell-based
[1] = target: T1, AURK A (Homo sapiens, UniProt O14965); settings: HEK293
T1 construct: host or cells: HEK293
Procedure, shortened: (§1)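 HEK293 cells were transfected overnight with NanoLuc–kinase fusion vectors, then treated for 2 h at 37 °C with compound (added as 100 μM working solution) plus K10 tracer. BRET was read at 450/610 nm after substrate and extracellular inhibitor, and fractional occupancy was calculated against no-compound controls.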

[2] = target: T2, AURKC (Homo sapiens, UniProt Q9UQB9); settings: HEK293
T2 construct: purchased Promega (NanoBRET Target Engagement K192 Kinase Selectivity System)
Procedure, shortened: as §1

[3] = target: T3, CDK14 + Y (Homo sapiens, UniProt O94921); settings: HEK293
T3 construct: purchased Promega (NanoBRET Target Engagement K192 Kinase Selectivity System)
Procedure, shortened: as §1

[4] = target: T4, CDK3 + E1 (Homo sapiens, UniProt Q00526); settings: HEK293
T4 construct: purchased Promega (NanoBRET Target Engagement K192 Kinase Selectivity System)
Procedure, shortened: as §1

[5] = target: T5, CDK6 + D1 (Homo sapiens, UniProt Q00534); settings: HEK293
T5 construct: purchased Promega (NanoBRET Target Engagement K192 Kinase Selectivity System)
Procedure, shortened: as §1

[6] = target: T6, CSNK2A1 (Homo sapiens, UniProt P68400)
T6 construct: expressed in transfected cells; host or cells: HEK293
T6 sequence (P68400 whole entry): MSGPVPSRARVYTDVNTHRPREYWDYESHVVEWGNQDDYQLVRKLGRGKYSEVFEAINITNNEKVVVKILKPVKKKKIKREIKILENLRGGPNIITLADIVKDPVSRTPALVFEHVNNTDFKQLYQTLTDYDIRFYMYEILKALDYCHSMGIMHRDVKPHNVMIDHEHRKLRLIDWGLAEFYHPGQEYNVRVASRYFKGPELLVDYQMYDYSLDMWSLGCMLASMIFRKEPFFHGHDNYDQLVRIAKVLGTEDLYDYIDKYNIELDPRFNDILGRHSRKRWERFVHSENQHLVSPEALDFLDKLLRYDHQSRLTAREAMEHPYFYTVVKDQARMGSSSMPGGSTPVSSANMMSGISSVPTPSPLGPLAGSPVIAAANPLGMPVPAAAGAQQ
Procedure, shortened: as §1

[7] = target: T7, DAPK2 (Homo sapiens, UniProt Q9UIK4)
T7 construct: expressed in transfected cells; host or cells: HEK293
T7 sequence (Q9UIK4 whole entry): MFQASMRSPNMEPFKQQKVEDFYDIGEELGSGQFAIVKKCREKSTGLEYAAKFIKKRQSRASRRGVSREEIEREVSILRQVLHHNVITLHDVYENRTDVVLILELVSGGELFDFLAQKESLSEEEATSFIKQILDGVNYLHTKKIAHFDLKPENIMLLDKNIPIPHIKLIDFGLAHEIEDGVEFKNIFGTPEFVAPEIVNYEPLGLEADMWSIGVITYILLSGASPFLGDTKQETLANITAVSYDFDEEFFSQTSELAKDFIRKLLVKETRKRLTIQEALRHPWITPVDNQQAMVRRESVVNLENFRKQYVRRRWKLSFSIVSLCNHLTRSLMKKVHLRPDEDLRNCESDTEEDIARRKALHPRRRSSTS
Procedure, shortened: as §1

[8] = target: T8, DYRK1B (Homo sapiens, UniProt Q9Y463); settings: HEK293
T8 construct: purchased Promega (NanoBRET Target Engagement K192 Kinase Selectivity System)
Procedure, shortened: as §1

[9] = target: T9, FES (Homo sapiens, UniProt P07332); settings: HEK293
T9 construct: purchased Promega (NanoBRET Target Engagement K192 Kinase Selectivity System)
Procedure, shortened: as §1

[10] = target: T10, MAP3K11 (Homo sapiens, UniProt Q16584); settings: HEK293
T10 construct: purchased Promega (NanoBRET Target Engagement K192 Kinase Selectivity System)
Procedure, shortened: as §1

[11] = target: T11, MAP3K2 (Homo sapiens, UniProt Q9Y2U5); settings: HEK293
T11 construct: purchased Promega (NanoBRET Target Engagement K192 Kinase Selectivity System)
Procedure, shortened: as §1

[12] = target: T12, MAP4K3 (Homo sapiens, UniProt Q8IVH8); settings: HEK293
T12 construct: purchased Promega (NanoBRET Target Engagement K192 Kinase Selectivity System)
Procedure, shortened: as §1

[13] = target: T13, MAPK11 (Homo sapiens, UniProt Q15759); settings: HEK293
T13 construct: purchased Promega (NanoBRET Target Engagement K192 Kinase Selectivity System)
Procedure, shortened: as §1

[14] = target: T14, MAPK4 (Homo sapiens, UniProt P31152); settings: HEK293
T14 construct: purchased Promega (NanoBRET Target Engagement K192 Kinase Selectivity System)
T14 sequence (P31152 whole entry): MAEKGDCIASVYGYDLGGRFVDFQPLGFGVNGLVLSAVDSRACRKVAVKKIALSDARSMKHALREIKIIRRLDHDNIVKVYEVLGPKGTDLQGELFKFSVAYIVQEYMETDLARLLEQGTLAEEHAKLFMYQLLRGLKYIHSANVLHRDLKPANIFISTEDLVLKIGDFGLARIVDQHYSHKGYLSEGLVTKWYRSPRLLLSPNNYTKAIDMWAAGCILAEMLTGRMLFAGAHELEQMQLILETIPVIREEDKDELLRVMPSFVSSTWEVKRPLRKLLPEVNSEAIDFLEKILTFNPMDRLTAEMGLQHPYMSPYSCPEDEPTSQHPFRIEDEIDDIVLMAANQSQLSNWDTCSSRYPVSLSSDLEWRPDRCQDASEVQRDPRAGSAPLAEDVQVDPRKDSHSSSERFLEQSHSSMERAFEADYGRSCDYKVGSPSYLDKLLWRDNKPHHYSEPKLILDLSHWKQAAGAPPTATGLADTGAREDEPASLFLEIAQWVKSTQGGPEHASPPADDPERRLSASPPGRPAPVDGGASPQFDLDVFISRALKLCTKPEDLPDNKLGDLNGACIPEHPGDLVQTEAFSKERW
Procedure, shortened: as §1

[15] = target: T15, MAPK9 (Homo sapiens, UniProt P45984); settings: HEK293
T15 construct: purchased Promega (NanoBRET Target Engagement K192 Kinase Selectivity System)
Procedure, shortened: as §1

[16] = target: T16, MARK4 (Homo sapiens, UniProt Q96L34); settings: HEK293
T16 construct: purchased Promega (NanoBRET Target Engagement K192 Kinase Selectivity System)
Procedure, shortened: as §1

[17] = target: T17, PHKG1 (Homo sapiens, UniProt Q16816)
T17 construct: purchased Promega (NanoBRET Target Engagement K192 Kinase Selectivity System)
T17 sequence (Q16816 whole entry): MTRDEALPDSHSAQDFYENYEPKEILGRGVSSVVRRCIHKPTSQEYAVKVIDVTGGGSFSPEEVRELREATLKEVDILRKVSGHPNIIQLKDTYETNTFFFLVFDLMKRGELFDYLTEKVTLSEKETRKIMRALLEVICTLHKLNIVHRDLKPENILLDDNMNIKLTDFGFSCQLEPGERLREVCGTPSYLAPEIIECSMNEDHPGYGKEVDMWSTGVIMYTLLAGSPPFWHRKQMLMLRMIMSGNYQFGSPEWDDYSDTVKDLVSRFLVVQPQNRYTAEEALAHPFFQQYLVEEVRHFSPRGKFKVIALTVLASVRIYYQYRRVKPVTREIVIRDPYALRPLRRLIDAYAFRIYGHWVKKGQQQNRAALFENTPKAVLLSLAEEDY
Procedure, shortened: as §1

[18] = target: T18, PRKACA (Homo sapiens, UniProt P17612); settings: HEK293
T18 construct: purchased Promega (NanoBRET Target Engagement K192 Kinase Selectivity System)
Procedure, shortened: as §1

[19] = target: T19, PRKCE (Homo sapiens, UniProt Q02156); settings: HEK293
T19 construct: purchased Promega (NanoBRET Target Engagement K192 Kinase Selectivity System)
T19 sequence (Q02156 whole entry): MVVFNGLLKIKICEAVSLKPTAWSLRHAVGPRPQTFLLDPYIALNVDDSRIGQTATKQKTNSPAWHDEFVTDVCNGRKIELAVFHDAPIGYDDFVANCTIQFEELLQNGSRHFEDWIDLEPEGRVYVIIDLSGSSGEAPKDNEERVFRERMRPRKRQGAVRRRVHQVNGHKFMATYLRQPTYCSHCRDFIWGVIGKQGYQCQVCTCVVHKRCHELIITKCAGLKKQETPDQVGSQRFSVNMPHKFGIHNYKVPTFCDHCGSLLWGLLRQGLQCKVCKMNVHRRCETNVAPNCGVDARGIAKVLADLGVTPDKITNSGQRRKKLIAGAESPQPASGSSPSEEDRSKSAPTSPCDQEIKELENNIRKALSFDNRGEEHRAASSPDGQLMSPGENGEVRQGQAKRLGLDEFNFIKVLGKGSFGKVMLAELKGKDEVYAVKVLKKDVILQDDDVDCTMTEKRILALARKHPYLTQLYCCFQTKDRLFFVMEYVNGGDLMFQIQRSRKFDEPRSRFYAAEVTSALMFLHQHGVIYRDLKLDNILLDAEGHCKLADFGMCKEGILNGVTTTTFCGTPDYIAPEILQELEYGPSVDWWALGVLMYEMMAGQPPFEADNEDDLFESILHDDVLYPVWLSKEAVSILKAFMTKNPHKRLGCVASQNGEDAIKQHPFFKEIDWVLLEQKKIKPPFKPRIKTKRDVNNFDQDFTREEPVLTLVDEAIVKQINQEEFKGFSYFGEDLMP
Procedure, shortened: as §1

[20] = target: T20, RPS6KA3 (Homo sapiens, UniProt P51812); settings: HEK293
T20 construct: purchased Promega (NanoBRET Target Engagement K192 Kinase Selectivity System)
Procedure, shortened: as §1

[21] = target: T21, SBK3 (Homo sapiens, UniProt P0C264); settings: HEK293
T21 construct: purchased Promega (NanoBRET Target Engagement K192 Kinase Selectivity System)
Procedure, shortened: as §1

[22] = target: T22, SIK3 (Homo sapiens, UniProt Q9Y2K2); settings: HEK293
T22 construct: purchased Promega (NanoBRET Target Engagement K192 Kinase Selectivity System)
Procedure, shortened: as §1

[23] = target: T23, STK33 (Homo sapiens, UniProt Q9BYT3); settings: HEK293
T23 construct: purchased Promega (NanoBRET Target Engagement K192 Kinase Selectivity System)
Procedure, shortened: as §1

[24] = target: T24, STK38L (Homo sapiens, UniProt Q9Y2H1); settings: HEK293
T24 construct: purchased Promega (NanoBRET Target Engagement K192 Kinase Selectivity System)
Procedure, shortened: as §1

[25] = target: T25, ULK1 (Homo sapiens, UniProt O75385); settings: HEK293
T25 construct: purchased Promega (NanoBRET Target Engagement K192 Kinase Selectivity System)
T25 sequence (O75385 whole entry): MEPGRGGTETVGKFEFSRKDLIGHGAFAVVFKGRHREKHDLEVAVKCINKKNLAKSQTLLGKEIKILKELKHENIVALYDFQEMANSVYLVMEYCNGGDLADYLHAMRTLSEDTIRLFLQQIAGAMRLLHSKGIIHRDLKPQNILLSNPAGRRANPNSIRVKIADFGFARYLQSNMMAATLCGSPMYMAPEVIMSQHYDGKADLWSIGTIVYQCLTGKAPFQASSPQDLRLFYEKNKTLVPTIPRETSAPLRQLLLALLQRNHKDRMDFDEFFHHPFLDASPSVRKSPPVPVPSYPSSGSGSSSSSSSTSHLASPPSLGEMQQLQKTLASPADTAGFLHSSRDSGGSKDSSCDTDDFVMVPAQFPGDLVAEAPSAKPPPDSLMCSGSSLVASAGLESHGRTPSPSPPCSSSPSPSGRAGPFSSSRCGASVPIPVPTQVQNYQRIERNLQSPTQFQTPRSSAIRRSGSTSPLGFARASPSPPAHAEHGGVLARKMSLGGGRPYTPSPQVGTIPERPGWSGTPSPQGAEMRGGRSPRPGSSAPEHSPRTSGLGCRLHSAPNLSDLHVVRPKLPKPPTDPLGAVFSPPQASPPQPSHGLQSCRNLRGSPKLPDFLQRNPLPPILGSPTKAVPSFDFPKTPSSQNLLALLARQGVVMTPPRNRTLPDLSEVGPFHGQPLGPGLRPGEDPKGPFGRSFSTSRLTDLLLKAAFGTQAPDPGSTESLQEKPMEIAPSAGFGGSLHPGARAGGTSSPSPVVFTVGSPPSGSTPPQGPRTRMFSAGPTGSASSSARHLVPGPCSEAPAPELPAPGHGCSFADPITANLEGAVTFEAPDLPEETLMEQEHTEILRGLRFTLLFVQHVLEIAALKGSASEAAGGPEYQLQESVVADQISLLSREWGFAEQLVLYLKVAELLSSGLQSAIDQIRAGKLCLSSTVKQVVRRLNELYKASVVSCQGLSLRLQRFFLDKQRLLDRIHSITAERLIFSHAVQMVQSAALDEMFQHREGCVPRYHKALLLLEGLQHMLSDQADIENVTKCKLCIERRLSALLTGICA
Procedure, shortened: as §1

[26] = target: T26, ULK2 (Homo sapiens, UniProt Q8IYT8); settings: HEK293
T26 construct: purchased Promega (NanoBRET Target Engagement K192 Kinase Selectivity System)
T26 sequence (Q8IYT8 whole entry): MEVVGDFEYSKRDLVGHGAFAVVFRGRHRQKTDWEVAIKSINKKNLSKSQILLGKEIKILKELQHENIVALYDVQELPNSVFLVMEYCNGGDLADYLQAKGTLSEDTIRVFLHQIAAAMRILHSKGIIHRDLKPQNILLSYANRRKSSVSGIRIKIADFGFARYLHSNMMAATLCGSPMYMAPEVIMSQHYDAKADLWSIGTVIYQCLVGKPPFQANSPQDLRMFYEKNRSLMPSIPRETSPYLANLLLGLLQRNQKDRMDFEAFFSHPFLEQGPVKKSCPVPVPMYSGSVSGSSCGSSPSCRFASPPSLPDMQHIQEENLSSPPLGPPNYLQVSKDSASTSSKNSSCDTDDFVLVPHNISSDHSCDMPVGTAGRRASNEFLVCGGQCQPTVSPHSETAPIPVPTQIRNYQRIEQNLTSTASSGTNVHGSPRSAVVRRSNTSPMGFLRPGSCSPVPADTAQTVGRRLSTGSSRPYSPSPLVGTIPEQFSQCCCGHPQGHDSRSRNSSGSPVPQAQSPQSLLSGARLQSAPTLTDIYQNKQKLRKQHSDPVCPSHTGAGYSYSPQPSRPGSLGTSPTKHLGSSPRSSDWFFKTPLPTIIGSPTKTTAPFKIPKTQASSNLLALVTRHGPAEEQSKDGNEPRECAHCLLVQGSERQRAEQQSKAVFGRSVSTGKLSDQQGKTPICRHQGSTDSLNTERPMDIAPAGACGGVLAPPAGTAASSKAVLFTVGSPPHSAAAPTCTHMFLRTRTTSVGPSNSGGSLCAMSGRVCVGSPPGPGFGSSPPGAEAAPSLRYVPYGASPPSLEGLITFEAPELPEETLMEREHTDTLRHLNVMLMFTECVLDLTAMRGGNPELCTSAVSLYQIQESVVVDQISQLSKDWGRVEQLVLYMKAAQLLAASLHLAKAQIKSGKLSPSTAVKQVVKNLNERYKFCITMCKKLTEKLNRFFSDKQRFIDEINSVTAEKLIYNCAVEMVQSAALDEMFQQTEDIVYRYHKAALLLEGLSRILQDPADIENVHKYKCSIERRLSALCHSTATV
Procedure, shortened: as §1

[27] = target: T27, WEE2 (Homo sapiens, UniProt P0C1S8); settings: HEK293
T27 construct: purchased Promega (NanoBRET Target Engagement K192 Kinase Selectivity System)
Procedure, shortened: as §1

T1 sequence (O14965 whole entry): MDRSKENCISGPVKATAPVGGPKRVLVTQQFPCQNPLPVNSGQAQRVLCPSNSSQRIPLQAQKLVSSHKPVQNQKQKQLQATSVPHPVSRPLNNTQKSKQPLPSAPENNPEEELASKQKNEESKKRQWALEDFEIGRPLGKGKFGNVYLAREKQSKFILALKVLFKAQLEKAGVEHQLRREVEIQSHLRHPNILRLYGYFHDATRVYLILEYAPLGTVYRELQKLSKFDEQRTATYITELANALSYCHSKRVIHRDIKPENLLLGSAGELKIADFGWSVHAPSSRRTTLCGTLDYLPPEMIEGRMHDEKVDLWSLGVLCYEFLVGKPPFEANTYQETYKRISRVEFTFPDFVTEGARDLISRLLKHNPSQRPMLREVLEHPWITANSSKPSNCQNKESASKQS

In the case of `CCC(=O)Nc1cc(Nc2cc(NC3CC3)n3ncc(C#N)c3n2)c(F)cc1N1CCC[C@H](NC)C1` [Compound 2, (S)-N-(5-((3-cyano-7-(cyclopropylamino)pyrazolo[1,5-a]pyrimidin-5-yl)amino)-4-fluoro-2-(3-(methylamino)piperidin-1-yl)phenyl)propionamide], the receptor occupancy at 10 µM [1] is reported as -9.3%, the receptor occupancy at 10 µM [2] is reported as 4.5% and the receptor occupancy at 10 µM [3] is reported as 29.4%. For the same molecule, the receptor occupancy at 10 µM [4] was 12.1%, the receptor occupancy at 10 µM [5] was 11.9% and the “% occupancy at 10 μM” value ([6]; CSNK2A1, HEK293) was 97%. For the same molecule, the receptor occupancy at 10 µM ([6]; HEK293, CSNK2A1) was 97.3%, the “% occupancy at 10 μM” value ([7]; DAPK2, HEK293) was 72% and the receptor occupancy at 10 µM ([7]; HEK293, DAPK2) was 72.1%. It also gave a receptor occupancy at 10 µM [8] of 38.3%, a receptor occupancy at 10 µM [9] of 11.7% and a receptor occupancy at 10 µM [10] of 19.5%. The receptor occupancy at 10 µM [11] was 13.8%, the receptor occupancy at 10 µM [12] was 2.9% and the receptor occupancy at 10 µM [13] was 9.4%. It also gave a receptor occupancy at 10 µM [14] of 0.9%, a receptor occupancy at 10 µM [15] of 2.4% and a receptor occupancy at 10 µM [16] of 7.4%. The receptor occupancy at 10 µM ([17]; HEK293, PHKG1) was 55.3%, the “% occupancy at 10 μM” value ([17]; PHKG1, HEK293) was 55% and the receptor occupancy at 10 µM [18] was 11.7%. The receptor occupancy at 10 µM [19] was 6.2%, the receptor occupancy at 10 µM [20] was 1.8% and the receptor occupancy at 10 µM [21] was 15.9%. It also gave a receptor occupancy at 10 µM [22] of 2.7%, a receptor occupancy at 10 µM [23] of 26% and a receptor occupancy at 10 µM [24] of 4%. For the same molecule, the receptor occupancy at 10 µM [25] was 25.2%, the receptor occupancy at 10 µM [26] was 15.5% and the receptor occupancy at 10 µM [27] was 4.5%.
